Experimental findings from PMC6700428, “Purification and characterization of an isoflavones conjugate hydrolyzing β-glucosidase (ICHG) from Cyamopsis tetragonoloba (guar)” (Biochemistry and Biophysics Reports, 2019) are described below.

Assay [1] has as its system T1, Isoflavones conjugate hydrolyzing β-glucosidase (ICHG).
T1 construct: native, purified from dried seeds (ammonium sulphate, Sephadex G-75, DEAE-Sepharose); ~50 kDa subunit, ~150 kDa native, probable homotrimer; five internal peptides closest to Cicer arietinum beta-glucosidase
Description: 4-nitrophenol release at […] nm, Lineweaver-Burk plot. The note with it: optimum pH 4.5 and 37 °C; citrate phosphate buffer 0.1 M; PNPG 0.1-5 mM. It is filed as biochemical, Cyamopsis tetragonoloba.

Assay [2] deals with Isoflavones conjugate hydrolyzing β-glucosidase (ICHG) from Cyamopsis tetragonoloba (guar) (Cyamopsis tetragonoloba (guar)). Put plainly: SEC; Sephadex G-75 column (1.8 x 50 cm), 0.02 M sodium phosphate buffer pH 6, standard proteins of 66 to 124 kDa; native mass (~150 kDa) compared with the subunit mass on SDS-PAGE (~50 kDa). Background: Size exclusion chromatography separates by hydrodynamic size, large species first.

By Km is commonly meant the concentration of substrate that gives half-maximal velocity. Turning to `O=[N+]([O-])c1ccc(O[C@@H]2O[C@H](CO)[C@@H](O)[C@H](O)[C@H]2O)cc1` [para nitrophenyl -β-D- glucopyranoside], in assay [1], the Km worked out at 860 µM.
In general, stoichiometry N refers to a count of units in the complex or per binding partner. The compound “Isoflavones conjugate hydrolyzing β-glucosidase (ICHG) from Cyamopsis tetragonoloba (guar) (enzyme)” gave a stoichiometry N in assay [2] of 3.
